This note sets out measurements from US9845322B2 (Hoffmann-La Roche Inc., priority 2016, dated 2017).

The structures appear in SMILES notation.

The subject of the test is HBsAg secretion in HepG2.2.15 cells. As to the kind of experiment: HBsAg assay (chemiluminescence immunoassay of secreted HBsAg in culture supernatant). Format: cell-based, HBV. As to conditions: Hepatitis B virus, HepG2.2.15, HepG2.2.15 cells; concentration at which HBsAg secretion was reduced by 50% compared to the no drug control; read-out: IC50 (HBsAg assay). The procedure, abridged: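 IC50 taken from dose-response curves as the concentration halving secreted HBsAg relative to DMSO control. Measured by chemiluminescence immunoassay of culture supernatant from constitutively HBV-expressing HepG2.2.15 cells, seeded at 1.5×10^4/well in duplicate and exposed to three-fold serial compound dilutions at 1% final DMSO.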

As to `CC1c2cnc(-c3ncccn3)nc2CCN1c1cc(F)cc(OCC(F)F)n1` (stereo not drawn) [Example 148, 6-[6-(2,2-difluoroethoxy)-4-fluoro-2-pyridyl]-5-methyl-2-pyrimidin-2-yl-7,8-dihydro-5H-pyrido[4,3-d]pyrimidine], the IC50 turned out to be 17 nM.

Turning to `CC1c2cnc(-c3ncccn3)nc2CCN1c1cc(F)nc(OCC(F)F)c1` (stereo not drawn) [Example 150, 6-[2-(2,2-difluoroethoxy)-6-fluoro-4-pyridyl]-5-methyl-2-pyrimidin-2-yl-7,8-dihydro-5H-pyrido[4,3-d]pyrimidine], the IC50 is 49 nM. For `CC1c2cnc(-c3ncccn3)nc2CCN1c1cc(OCC2CCOCC2)cc(F)n1` (stereo not drawn) [Example 151, 6-[6-fluoro-4-(tetrahydropyran-4-ylmethoxy)-2-pyridyl]-5-methyl-2-pyrimidin-2-yl-7,8-dihydro-5H-pyrido[4,3-d]pyrimidine] the value was 12 nM. To `CC1c2cnc(-c3ncccn3)nc2CCN1c1cc(OCC2CC2)cc(F)n1` (stereo not drawn) [Example 152, 6-[4-(cyclopropylmethoxy)-6-fluoro-2-pyridyl]-5-methyl-2-pyrimidin-2-yl-7,8-dihydro-5H-pyrido[4,3-d]pyrimidine] belongs 11 nM.

Consider `COc1cc(F)nc(N2CCc3nc(-c4ccccn4)ncc3C2C)c1` (stereo not drawn) [Example 153, 6-(6-fluoro-4-methoxy-2-pyridyl)-5-methyl-2-(2-pyridyl)-7,8-dihydro-5H-pyrido[4,3-d]pyrimidine], for which the IC50 came to 22 nM. To `CC1c2cnc(-c3ncccn3)nc2CCN1c1cc(OCC2CCOC2)cc(F)n1` (stereo not drawn) [Example 154, 6-[6-fluoro-4-(tetrahydrofuran-3-ylmethoxy)-2-pyridyl]-5-methyl-2-pyrimidin-2-yl-7,8-dihydro-5H-pyrido[4,3-d]pyrimidine] belongs 7 nM. To `CC1c2cnc(-c3ncccn3)nc2CCN1c1cc(OCC2CN(S(C)(=O)=O)C2)cc(F)n1` (stereo not drawn) [Example 159, 6-[6-fluoro-4-[(1-methylsulfonylazetidin-3-yl)methoxy]-2-pyridyl]-5-methyl-2-pyrimidin-2-yl-7,8-dihydro-5H-pyrido[4,3-d]pyrimidine] belongs 56 nM; to `CC(=O)N1CC(COc2cc(F)nc(N3CCc4nc(-c5ncccn5)ncc4C3C)c2)C1` (stereo not drawn) [Example 160, 1-[3-[[2-fluoro-6-(5-methyl-2-pyrimidin-2-yl-7,8-dihydro-5H-pyrido[4,3-d]pyrimidin-6-yl)-4-pyridyl]oxymethyl]azetidin-1-yl]ethanone], 196 nM; to `COc1cc(C)nc(N2CCc3nc(-c4ncccn4)ncc3C2C)c1` (stereo not drawn) [Example 161, 6-(4-methoxy-6-methyl-2-pyridyl)-5-methyl-2-pyrimidin-2-yl-7,8-dihydro-5H-pyrido[4,3-d]pyrimidine], 95 nM. For `CC1c2cnc(-c3ncccn3)nc2CCN1c1cc(OCCCOCC(=O)O)cc(F)n1` (stereo not drawn) [Example 162, 2-[3-[[2-fluoro-6-(5-methyl-2-pyrimidin-2-yl-7,8-dihydro-5H-pyrido[4,3-d]pyrimidin-6-yl)-4-pyridyl]oxy]propoxy]acetic acid] the value was 1780 nM. Consider `CC1c2cnc(-c3ncccn3)nc2CCN1c1cc(OCCCOCC(N)=O)cc(F)n1` (stereo not drawn) [Example 163, 2-[3-[[2-fluoro-6-(5-methyl-2-pyrimidin-2-yl-7,8-dihydro-5H-pyrido[4,3-d]pyrimidin-6-yl)-4-pyridyl]oxy]propoxy]acetamide], for which the half-inhibitory concentration (IC50) is 35 nM.

As for `CC1c2cnc(-c3ncccn3)nc2CCN1c1cc(OCC2CCCO2)cc(F)n1` (stereo not drawn) [Example 166, 6-[6-fluoro-4-(tetrahydrofuran-2-ylmethoxy)-2-pyridyl]-5-methyl-2-pyrimidin-2-yl-7,8-dihydro-5H-pyrido[4,3-d]pyrimidine], the IC50 is 19 nM. To `COC(=O)CCCCCCCOc1cc(F)nc(N2CCc3nc(-c4ncccn4)ncc3C2C)c1` (stereo not drawn) [Example 167, methyl 8-[[2-fluoro-6-(5-methyl-2-pyrimidin-2-yl-7,8-dihydro-5H-pyrido[4,3-d]pyrimidin-6-yl)-4-pyridyl]oxy]octanoate] belongs 26 nM; to `CC1c2cnc(-c3ncccn3)nc2CCN1c1cc(OCCCCCCCC(=O)O)cc(F)n1` (stereo not drawn) [Example 168, 8-[[2-fluoro-6-(5-methyl-2-pyrimidin-2-yl-7,8-dihydro-5H-pyrido[4,3-d]pyrimidin-6-yl)-4-pyridyl]oxy]octanoic acid], 21 nM. In the case of `CC1c2cnc(-c3ncccn3)nc2CCN1c1cc(OCCCCCCCC(N)=O)cc(F)n1` (stereo not drawn) [Example 169, 8-[[2-fluoro-6-(5-methyl-2-pyrimidin-2-yl-7,8-dihydro-5H-pyrido[4,3-d]pyrimidin-6-yl)-4-pyridyl]oxy]octanamide], the IC50 came out at 18 nM. With `CC1c2cnc(-c3ccccn3)nc2CCN1c1cc(OCCCCCC(=O)O)cc(F)n1` (stereo not drawn) [Example 170, 6-[[2-fluoro-6-[5-methyl-2-(2-pyridyl)-7,8-dihydro-5H-pyrido[4,3-d]pyrimidin-6-yl]-4-pyridyl]oxy]hexanoic acid], the 50% inhibitory concentration (IC50) was 16 nM. As for `CC1c2cnc(-c3ccccn3)nc2CCN1c1cc(OCCCCCC(N)=O)cc(F)n1` (stereo not drawn) [Example 171, 6-[[2-fluoro-6-[5-methyl-2-(2-pyridyl)-7,8-dihydro-5H-pyrido[4,3-d]pyrimidin-6-yl]-4-pyridyl]oxy]hexanamide], the IC50 was 18 nM. `CC1c2cnc(-c3ncccn3)nc2CCN1c1cc(OC2CCOCC2)cc(F)n1` (stereo not drawn) [Example 172, 6-(6-fluoro-4-tetrahydropyran-4-yloxy-2-pyridyl)-5-methyl-2-pyrimidin-2-yl-7,8-dihydro-5H-pyrido[4,3-d]pyrimidine]: the IC50 was 56 nM. Regarding `CC1c2cnc(-c3ncccn3)nc2CCN1c1cc(F)cc(OC2CCOCC2)n1` (stereo not drawn) [Example 173, 6-(4-fluoro-6-tetrahydropyran-4-yloxy-2-pyridyl)-5-methyl-2-pyrimidin-2-yl-7,8-dihydro-5H-pyrido[4,3-d]pyrimidine], the IC50 came to 132 nM.

In the case of `CC1c2cnc(-c3ncccn3)nc2CCN1c1cc(OCC(N)=O)cc(F)n1` (stereo not drawn) [Example 174, 2-[[2-fluoro-6-(5-methyl-2-pyrimidin-2-yl-7,8-dihydro-5H-pyrido[4,3-d]pyrimidin-6-yl)-4-pyridyl]oxy]acetamide], the IC50 worked out at 660 nM. In the case of `COC(=O)c1cc(F)cc(N2CCc3nc(-c4ncccn4)ncc3C2C)c1` (stereo not drawn) [Example 175, methyl 3-fluoro-5-(5-methyl-2-pyrimidin-2-yl-7,8-dihydro-5H-pyrido[4,3-d]pyrimidin-6-yl)benzoate], the IC50 came to 1460 nM.

Regarding `CC1c2cnc(-c3ncccn3)nc2CCN1c1cc(F)cc(C(=O)O)c1` (stereo not drawn) [Example 176, 3-fluoro-5-(5-methyl-2-pyrimidin-2-yl-7,8-dihydro-5H-pyrido[4,3-d]pyrimidin-6-yl)benzoic acid], the IC50 came to 27800 nM.

In the case of `COCCCNC(=O)c1cc(F)cc(N2CCc3nc(-c4ncccn4)ncc3C2C)c1` (stereo not drawn) [Example 177, 3-fluoro-N-(3-methoxypropyl)-5-(5-methyl-2-pyrimidin-2-yl-7,8-dihydro-5H-pyrido[4,3-d]pyrimidin-6-yl)benzamide], the IC50 is 290 nM. With `COCCCN(C)C(=O)c1cc(F)cc(N2CCc3nc(-c4ncccn4)ncc3C2C)c1` (stereo not drawn) [Example 178, 3-fluoro-N-(3-methoxypropyl)-N-methyl-5-(5-methyl-2-pyrimidin-2-yl-7,8-dihydro-5H-pyrido[4,3-d]pyrimidin-6-yl)benzamide], the IC50 came to 123 nM.

As to `CC1c2cnc(-c3ccccn3)nc2CCN1c1cc(OCCCCCCC(=O)O)cc(F)n1` (stereo not drawn) [Example 179, 7-[[2-fluoro-6-[5-methyl-2-(2-pyridyl)-7,8-dihydro-5H-pyrido[4,3-d]pyrimidin-6-yl]-4-pyridyl]oxy]heptanoic acid], the IC50 was determined as 29 nM. To `CC1c2cnc(-c3ccccn3)nc2CCN1c1cc(OCCCCCCC(N)=O)cc(F)n1` (stereo not drawn) [Example 180, 7-[[2-fluoro-6-[5-methyl-2-(2-pyridyl)-7,8-dihydro-5H-pyrido[4,3-d]pyrimidin-6-yl]-4-pyridyl]oxy]heptanamide] belongs 27 nM. Turning to `COCCCNS(=O)(=O)c1cc(F)cc(N2CCc3nc(-c4ncccn4)ncc3C2C)c1` (stereo not drawn) [Example 182, 3-fluoro-N-(3-methoxypropyl)-5-(5-methyl-2-pyrimidin-2-yl-7,8-dihydro-5H-pyrido[4,3-d]pyrimidin-6-yl)benzenesulfonamide], the IC50 stood at 2240 nM. To `COCCCN(C)S(=O)(=O)c1cc(F)cc(N2CCc3nc(-c4ncccn4)ncc3C2C)c1` (stereo not drawn) [Example 183, 3-fluoro-N-(3-methoxypropyl)-N-methyl-5-(5-methyl-2-pyrimidin-2-yl-7,8-dihydro-5H-pyrido[4,3-d]pyrimidin-6-yl)benzenesulfonamide] belongs 838 nM; to `CC1c2cnc(-c3ccccn3)nc2CCN1c1cc(OCCCOCC(N)=O)cc(F)n1` (stereo not drawn) [Example 186], 18 nM. For `COCCCS(=O)(=O)c1cc(F)cc(N2CCc3nc(-c4ncccn4)ncc3C2C)c1` (stereo not drawn) [Example 187, 6-[3-fluoro-5-(3-methoxypropylsulfonyl)phenyl]-5-methyl-2-pyrimidin-2-yl-7,8-dihydro-5H-pyrido[4,3-d]pyrimidine] the value was 613 nM; for `CC1c2cnc(-c3ccccn3)nc2CCN1c1cc(OCC2CCOC2)cc(F)n1` (stereo not drawn) [Example 188, 6-[6-fluoro-4-(tetrahydrofuran-3-ylmethoxy)-2-pyridyl]-5-methyl-2-(2-pyridyl)-7,8-dihydro-5H-pyrido[4,3-d]pyrimidine], 29 nM. Consider `CC1c2cnc(-c3ccccn3)nc2CCN1c1cc(OCC2CCCO2)cc(F)n1` (stereo not drawn) [Example 189, 6-[6-fluoro-4-(tetrahydrofuran-2-ylmethoxy)-2-pyridyl]-5-methyl-2-(2-pyridyl)-7,8-dihydro-5H-pyrido[4,3-d]pyrimidine], for which the IC50 stood at 40 nM. For `CC1c2cnc(-c3ccccn3)nc2CCN1c1cc(OCC2CCOCC2)cc(F)n1` (stereo not drawn) [Example 190, 6-[6-fluoro-4-(tetrahydropyran-4-ylmethoxy)-2-pyridyl]-5-methyl-2-(2-pyridyl)-7,8-dihydro-5H-pyrido[4,3-d]pyrimidine] the value was 24 nM.

The term IC50 denotes the midpoint of a concentration-inhibition curve.
